# Legend:
# USP7 = biological target: T1, USP7 (Homo sapiens, UniProt Q93009, C315A); test: Inhibition of USP7 by Fluorescence Intensity (FLINT) readings, Ubiquitin-Rhodamine-110 substrate; type: biochemical; conditions: 0.25 nM His-His-USP7 (aa208-560, [C315A]); compound 60 minutes at 30° C.; 500 nM Ubiquitin-Rhodamine substrate; 11-point curves
# T1 construct: 0.25 nM His-His-USP7 (aa208-560, [C315A]) was incubated with compound; His-His (N)
# In short: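 His-His-USP7 (aa208-560, C315A) at 0.25 nM was preincubated with compound for 60 min at 30 °C in 100 mM Bicine pH 8.0, 0.01% Triton X-100, 1 mM TCEP, 10% DMSO. 500 nM ubiquitin-rhodamine-110 was then added, with fluorescence (Ex 485/Em 535 nm) read every 3 min for 21 min. IC50 came from kinetic-rate inhibition, 11-point curves, 4-parameter fit.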
# [1] = test system: MM 1S multiple myeloma tumour cell line; test: In vitro cytotoxicity, MTT assay, MM1S cells; type: cell-based; conditions: Homo sapiens, MM1.S, 96 hours exposure
# Method: (§1) The cytotoxicity studies were evaluated by MTT assay and carried out on MM 1S multiple myeloma or Z138 mantle cell lymphoma tumour cell lines. The cells are distributed onto microplates and exposed to the test compounds for 96 hours. The cell viability is then quantified by a colorimetric assay, the Microculture Tetrazolium Assay (Carmichael et. al., Cancer Res. […], 47, 936-942).
# [2] = test system: Z138 mantle cell lymphoma tumour cell line; test: In vitro cytotoxicity, MTT assay, Z138 cells; type: cell-based; conditions: Homo sapiens, Z-138; Z138 tumour cell line (underlined values); 96 hours exposure
# Method: as §1
# T1 sequence (Q93009 208-560 C315A): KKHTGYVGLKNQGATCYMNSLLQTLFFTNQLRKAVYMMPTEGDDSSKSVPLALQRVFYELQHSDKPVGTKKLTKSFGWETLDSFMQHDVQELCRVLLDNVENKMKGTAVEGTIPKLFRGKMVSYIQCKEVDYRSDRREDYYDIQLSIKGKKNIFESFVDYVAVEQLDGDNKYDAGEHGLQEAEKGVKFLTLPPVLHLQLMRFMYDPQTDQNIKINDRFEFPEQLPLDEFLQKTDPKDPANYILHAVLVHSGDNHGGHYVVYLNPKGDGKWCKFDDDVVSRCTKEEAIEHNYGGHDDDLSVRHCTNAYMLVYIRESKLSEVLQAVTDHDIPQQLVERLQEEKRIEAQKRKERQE
SMILES,IC50 (USP7) [nM],IC50 [1] [nM],IC50 [2] [nM]
"COc1ccc(-n2ccc3c(=O)n(CC4(O)CCN(C(=O)[C@@H]5CCC(F)(F)C[C@H]5c5ccccc5)CC4)cnc32)cc1 (single isomer, unassigned) [Example 34, 3-[[1-[trans-4,4-difluoro-2-phenyl-cyclohexanecarbonyl]-4-hydroxy-4-piperidyl]methyl]-7-(4-methoxyphenyl)pyrrolo[2,3-d]pyrimidin-4-one]",23.1,24.5,5.66
"O=C(C1CC(F)CCC1c1ccccc1)N1CCC(O)(Cn2cnc3c(ccn3-c3ccccc3)c2=O)CC1 (stereo not drawn) [Example 37, 3-[[1-[5-fluoro-2-phenyl-cyclohexanecarbonyl]-4-hydroxy-4-piperidyl]methyl]-7-phenyl-pyrrolo[2,3-d]pyrimidin-4-one]",46.3,84.1,–
"COc1ccc(-n2ccc3c(=O)n(CC4(O)CCN(C(=O)[C@@H]5CC(F)(F)CC[C@H]5c5ccccc5)CC4)cnc32)cc1 (single isomer, unassigned) [Example 30, 3-[[1-[trans-5,5-difluoro-2-phenyl-cyclohexanecarbonyl]-4-hydroxy-4-piperidyl]methyl]-7-(4-methoxyphenyl)pyrrolo[2,3-d]pyrimidin-4-one]",15.9,10.8,–
"O=C([C@@H]1CCC(F)(F)C[C@H]1c1ccccc1)N1CCC(O)(Cn2cnc3c(ccn3-c3ccccc3)c2=O)CC1 (single isomer, unassigned) [Example 36, 3-[[1-[trans-4,4-difluoro-2-phenyl-cyclohexanecarbonyl]-4-hydroxy-4-piperidyl]methyl]-7-phenyl-pyrrolo[2,3-d]pyrimidin-4-one]",75.3,126,–

# Further compounds by falling IC50 (USP7), results first:
IC50 (USP7) [nM],SMILES,IC50 [1] [nM],IC50 [2] [nM]
35.9,"O=C([C@@H]1CCCC[C@H]1c1ccccc1)N1CCC(O)(Cn2cnc3c(ccn3-c3ccccc3)c2=O)CC1 (relative stereo) [Example 9, 3-[[4-hydroxy-1-(trans-2-phenylcyclohexanecarbonyl)-4-piperidyl]methyl]-7-phenyl-pyrrolo[2,3-d]pyrimidin-4-one]",13.9,–
33.5,"COc1ccc(-n2ccc3c(=O)n(CC4(O)CCN(C(=O)[C@@H]5CCCC[C@H]5n5cccc5)CC4)cnc32)cc1 (single isomer, unassigned) [Example 17, 3-[[4-hydroxy-1-[trans-2-pyrrol-1-ylcyclohexanecarbonyl]-4-piperidyl]methyl]-7-(4-methoxyphenyl)pyrrolo[2,3-d]pyrimidin-4-one]",4.21,–
27.1,"O=C([C@@H]1CCCC[C@H]1n1cccc1)N1CCC(O)(Cn2cnc3c(ccn3-c3ccccc3)c2=O)CC1 (single isomer, unassigned) [Example 14, 3-[[4-hydroxy-1-[trans-2-pyrrol-1-ylcyclohexanecarbonyl]-4-piperidyl]methyl]-7-phenyl-pyrrolo[2,3-d]pyrimidin-4-one]",6.42,14.7
14.3,"O=C([C@@H]1CCCC[C@H]1c1ccccc1)N1CCC(O)(Cn2cnc3c(cnn3-c3ccccc3)c2=O)CC1 (relative stereo) [Example 19, 5-[[4-hydroxy-1-(trans-2-phenylcyclohexanecarbonyl)-4-piperidyl]methyl]-1-phenyl-pyrazolo[3,4-d]pyrimidin-4-one]",195,–

# From US11332472B2, “Substituted piperidines as inhibitors of ubiquitin specific protease 7” (LES LABORATOIRES SERVIER, priority 2017, dated 2022)
